Reference: patent US20230272357A1, “METHODS OF GENOME EDITING INCLUDING CONTROLLED OPENING OF CHROMATIN” (Wisconsin Alumni Research Foundation, priority 2021, published 2023)

Experiments:
Format in all cases: cell-based, human
[1] = system: on-target and top off-target sites of HIST1H2BJ-GFP, AAVS1 S10, EMX1; test: Off-target analysis of edited iPSCs (CHANGE-seq/GUIDE-seq sites, rhAmpSeq)
Experimental: Genome-wide, off-target analysis: Genomic DNA from iPSCs was isolated using Gentra® Puregene® Kit (Qiagen) according to the manufacturer's instructions. CHANGE-seq was performed as described in the art. Briefly, purified genomic DNA was tagmented with a custom Tn5-transposome to an average length of 400 bp, followed by gap repair with Kapa HiFi HotStart Uracil+DNA Polymerase (KAPA Biosystems) and Taq DNA ligase (NEB). Gap-repaired tagmented DNA was treated with USER™ enzyme (NEB) and T4 polynucleotide kinase (NEB). Intramolecular circularization of the DNA was performed with T4 DNA ligase (NEB) and residual linear DNA was degraded by a cocktail of exonucleases containing Plasmid-Safe ATP-dependent DNase (Lucigen), Lambda exonuclease (NEB), and Exonuclease I (NEB). In vitro cleavage reactions were performed with 125 ng of exonuclease-treated circularized DNA, 90 nM of SpCas9 protein (NEB), NEB buffer 3.1 (NEB) and 270 nM of sgRNA, in a 50 μL volume. Cleaved products were A-tailed, ligated with a hairpin adaptor (NEB), treated with USER™ enzyme (NEB), and amplified by PCR with barcoded universal primers NEBNext® Multiplex Oligos for Illumina® (NEB), using Kapa HiFi Polymerase (KAPA Biosystems). Libraries were quantified by qPCR (KAPA Biosystems) and sequenced with 151 bp paired-end reads on an Illumina® NextSeq instrument. CHANGE-seq data analyses were performed using open-source CHANGE-seq analysis software.
To determine the indel frequency at CHANGE-seq-identified off-target sites, on and off-target sites for were amplified from iPSC genomic DNA obtained using rhAmpSeg™ system (IDT), and sequencing libraries were generated according to the manufacturer's instructions. Sequencing was then performed with 150-bp paired-end reads on an Illumina® Miniseq instrument. Analysis was performed using CRISPAltRations: IDT rhAmpSeq CRISPR analysis tool.
Highly sensitive genome-wide, off-target analysis for our TSA-based editing strategy was assayed by CHANGE-seq at HIST1H2BJ-GFP site, which yielded a frequency distribution of the potential off-target sites (FIG. 3A,B). Top 12 off-target sites were amplified from genomic DNA using the rhAmp-Seq system (IDT) and subsequently sequenced using the Illumina® MiniSeq™ system. Sequencing data was then analyzed using the CRISPAltRations tool, which allowed for quantitative analysis of observed indel mutations (data not shown). […] Furthermore, the highest normalized on-target edit ratio was obtained for TSA concentration of 6.25 ng/mL, representative of the optimal TSA concentration for generating gene editing iPSCs.

[2] = system: iPSCs; test: Bulk RNA sequencing of TSA-treated iPSCs; conditions: edited clones from 6.25 ng/mL TSA, data not shown
Experimental: RNA extraction and Bulk RNA sequencing: RNA was extracted from iPSCs in one well of 6-well plate using the GenElute™ Total RNA Purification Kit (Millipore Sigma) according to the manufacturer's instructions. RNA was then quantified using Nanodrop™ 2000 (ThermoFisher Scientific) and the integrity of samples were confirmed with the following three criteria for inclusion: 1) a concentration>50 ng/ml, 2) an A260/A280 rating of 1.8 and 2.1, and 3) an A260/A230 ratio>1.8. Total RNA was submitted to the University of Wisconsin-Madison Biotechnology Center and was verified for purity and integrity via the NanoDrop™ One Spectrophotometer and Agilent 2100 BioAnalyzer, respectively. Samples that met the Illumina® sample input guidelines were prepared according to the TruSeq®Stranded Total Sample Preparation Guide (1000000040499 v00) using the Illumina® TruSeq ® Stranded Total Sample Preparation kits (Illumina Inc., San Diego, Calif., USA) and sequenced on an Illumina® NovaSeg™ 6000 system at a run length 2×150 bp and target read depth of 30 million reads/sample at the University of Wisconsin—Madison Biotechnology Center. […] Normalized counts were then extracted and genes with read counts <10 were filtered out. Fold change was then calculated as the ratio of the reads of the TSA-treated iPSCs to the untreated iPSCs.

[3] = system: HIST1H2BJ-GFP reporter iPSC nuclei; test: Live in situ nuclear imaging of chromatin condensation (CellProfiler); conditions: TSA 0, 3.13, 6.25, 12.5 ng/mL, FIG. 1C,D
Experimental: Antibodies and Staining: All cells were fixed for 15 minutes with 4% paraformaldehyde in PBS (Sigma-Aldrich, St. Louis, Mo.) and permeabilized with 0.5% Triton™-X (Sigma-Aldrich) for >4 hours at room temperature before staining. Hoechst (H1399; Thermo Fisher Scientific, Waltham, Mass.) was used at 5 μg/mL with 15 min incubation at room temperature to stain nuclei. Primary antibodies were applied overnight at 4° C. in a blocking buffer of 5% donkey serum (Sigma-Aldrich) at the following concentrations: H3K9Me3 (ab8898; Abcam) 1:500; H3K9Ac (39918; Active Motif) 1:100; H3K27Me3 (C36B11; Cell Signaling Technology) 1:200. […]
After streamlining the gene editing strategy, the effect of TSA treatment on the gene editing efficiency of iPSCs was examined The iPSCs were pre-treated with TSA (0, 3.13, 6.25, and 12.5 ng/mL) and their nuclei imaged. […] The images were then used as inputs for a CellProfiler software pipeline to output the chromatin condensation % of the nuclei (data not shown), defined as the ratio of total heterochromatin intensity to the total nuclear intensity. […]

[4] = HIST1H2BJ-GFP, AAVS1 S10, EMX1, with TSA concentration, FIG. 3C-E

For `CC(/C=C/C(=O)NO)=C\[C@@H](C)C(=O)c1ccc(N(C)C)cc1` [TSA, Trichostatin A], which “TSA concentration giving highest normalized on-target edit ratio” value ([1]; AAVS1 S10 and EMX1 loci) is on record?
Its value is 6.25 ng/mL.

What about the “TSA concentration giving highest normalized on-target edit ratio” value ([1]; HIST1H2BJ-GFP site) of the same molecule?
Its value is 6.25 ng/mL.

What about the “TSA concentration giving highest normalized on-target edit ratio” value ([1]; HIST1H2BJ-GFP, AAVS1 S10, EMX1, FIG. 3C-E) of the same molecule?
Its value is 6.25 ng/mL.

And the Off-target indel % [1, 4]?
Its Off-target indel % is “remains the same”.

And the On-target indel % [1, 4]?
Its On-target indel % is “increases”.

What about the “Indel % at off-target sites” value ([1]; top 12 off-target sites of HIST1H2BJ-GFP, upon TSA treatment) of the same molecule?
The value was “did not increase”.

What about the “Indel % at off-target sites” value ([1]; top off-target sites for AAVS1 S10 and EMX1 loci) of the same molecule?
The value was “no significant increase”.

What about the “Gene expression of pluripotency marker genes (OCT4, NANOG, SOX2, TRA-1-60)” value [2] of the same molecule?
The value was “did not decrease”.

What about the “Chromatin condensation % (heterochromatin intensity to total nuclear intensity)” value [3] of the same molecule?
Its value is “decrease”.
